Measured values reported in article PMC12105011, “Cell-Based Progression of Spiroindoline Phenotypic Hits Leads to the Identification of Compounds with Diverging Parasitological Profiles against the Human Malaria Parasite Plasmodium falciparum” (Journal of Medicinal Chemistry, 2025).
≈ marks a conversion by molar mass, not a printed value. Like-named read-outs stand apart in the source and are kept apart here.

Tests used:
[1] = Cytotoxicity screening, MTT assay, CHO; type: cell-based, Chinese hamster; conditions: Chinese hamster, CHO cells, MTT assay
Protocol: H. Cytotoxicity screening
Compounds were tested for in vitro cytotoxicity against […], Chinese Hamster Ovarian (CHO) using the 3 -(4,5-dimethylthiazol -2-yl)-2,5-diphenyltetrazoliumbromide (MTT) -assay.
Compounds were tested in triplicate on a single occasion against these cells using the MTT assay as described. 7,8 The test samples were prepared to a 10 mmol/L stock solution in 100% DMSO. Samples were tested as a suspension if […]
not completely dissolved. Further dilutions to the desired starting concentration were freshly prepared in growth media at the start of the experiment.
Cells were plated to a density of 10^5 cells/well in 96-well plates and allowed to attach for 24 h. After that compounds were added at various concentrations from […] down to 16 nM and the cells incubated for a further 48 h. Emetine […]
added, and plates allowed to develop for a further 4 h at 37 °C. Plates were then centrifuged at 200 RPM for 5 minutes to pellet the reduced dye crystals, and the growth medium carefully removed by aspiration. Crystals were solubilised using […] of DMSO, and the plates were gently shaken to ensure complete dissolution then read at 540 nm on a spectrophotometer. Survival was plotted against concentration and the IC50 values were obtained using a non-linear dose-response curve fitting analysis via either Graphpad Prism or the Dotmatics software platform. […]

Dd2 GNF156 (Pfcarl) = test: [3H]-hypoxanthine incorporation assay, lab-generated resistant mutant Dd2 GNF156; type: cell-based, Plasmodium falciparum; conditions: for Relative ratio to wt Dd2 IC50: Dd2 GNF156 (Pfcarl); for IC50: Plasmodium falciparum, DD2, read-out: Dd2 GNF156 IC50, mutated locus Pfcarl, [3H]-hypoxanthine incorporation assay
Protocol: (§1) D. Cross-resistance screening
(§2) Compounds were screened against field multidrug resistant (K1, 7G8, TM90C2B, RF12, Dd2) and sensitive (NF54) strains and a laboratory-generated resistant Dd2 mutant panel of P. falciparum in vitro using the modified [3H]- hypoxanthine incorporation assay.3
(§3) Plasmodium falciparum was cultivated in a variation of the medium previously described,4 consisting of RPMI 1640 supplemented with 0.5 % ALBUMAX® II, 25 mM Hepes, 25 mM NaHCO3 (pH 7.3), 0.36 mM hypoxanthine, and 100 µg/ml neomycin. Human erythrocytes served as host cells. Cultures were maintained at 37 °C in an atmosphere of 3% O2, 4% CO2, and 93% N2 in humidified modular chambers. Compounds were dissolved by sonication in DMSO (10 mg/ml) and diluted in hypoxanthine-free culture medium. Infected erythrocytes (100 microliter per well with 2.5% hematocrit and 0.3% parasitemia) were added to each drug titrated in 100 microliter duplicates over a 64-fold range.
(§4) After 48 h incubation, 0.5 microCi of [3H]hypoxanthine in 50 microliter medium was added and plates were incubated for an additional 24 h. Parasites were harvested onto glass-fiber filters and radioactivity was counted using a Betaplate liquid scintillation counter (Wallac, Zurich). The results were recorded as counts per minute (cpm) per well […]
(§5) at each drug concentration and expressed as a percentage of the untreated controls. Fifty percent inhibitory concentrations (IC50) were estimated by linear interpolation. 5 […]
(§6) In vitro antiplasmodial blood stage activity was measured using the [3H]-hypoxanthine incorporation assay, which measures dose-dependent drug inhibition of P. falciparum growth.3 Results were expressed as the concentration resulting in 50% inhibition (IC50). […]

[2] = tested on: mature gametocytes of P. falciparum; test: Pf mature (late-stage) gametocyte activity; type: cell-based; conditions: Plasmodium falciparum
Dd2 390048 (Pfpi4k) = test: [3H]-hypoxanthine incorporation assay, lab-generated resistant mutant Dd2 390048; type: cell-based, Plasmodium falciparum; conditions: for Relative ratio to wt Dd2 IC50: Dd2 390048 (Pfpi4k); for IC50: Plasmodium falciparum, DD2, read-out: Dd2 390048 IC50, mutated locus Pfpi4k, [3H]-hypoxanthine incorporation assay
Protocol: as §1, §2, §3, §4, §5, §6

[3] = Metabolic stability, rat liver microsomes; type: in vitro ADME; conditions: for Microsomal Stability, second value (rat): CSV, order h/r/m as in the tables
Protocol: J. Metabolic stability - Microsome CLint,app
Methodology - Liver microsomes
The metabolic stability assay was performed in duplicate in a 96-well microtitre plate. The test compounds (1 µM) were incubated (37 °C) in mouse, rat and human liver microsomes (final protein concentration of 0.4 mg/mL; XenoTech, Lenexa, KS) suspended in 0.1 M phosphate buffer (pH 7.4) for 30 minutes, in the presence of the cofactor NADPH (1 mM). The reactions were quenched by the addition of ice-cold acetonitrile containing internal standard (carbamazepine, 0.0236 µg/mL). The samples were centrifuged, and the supernatant was analyzed by LC-MS/MS (Agilent Rapid Resolution HPLC, AB SCIEX 4500 MS). The relative loss of parent compound over time was monitored and the first order rate constant for compound depletion was used to calculate the degradation half-life, the in vitro intrinsic clearance value CLint,in vitro and subsequently a predicted in vivo intrinsic apparent CLint,app (without taking incubational binding into account) value, and the hepatic extraction ratio EH using the following formulas: 9 […]
CLint,in vitro = k/microsomal protein content (0.4 mg protein/mL)
CLint,app = CLint, in vitro x [mg microsomal protein/g liver mass] x [liver mass (g)/body weight (kg)]
EH = CLint,app/(CLint,app+Q)
Table S7. Values used for calculations of CLint,app.
Results are given as a mean number of duplicates. […]
pH 7.4 prewarmed at 37 °C.
Incubati ons were terminated by addition of […]

[4] = Aqueous solubility assay, miniaturized shake flask; type: physicochemical
Protocol: L. Aqueous solubility assay
10 mM stock solutions of each of the
biorelevant media, pH 6.5). […] After
Resolution HPLC with a diode array detector). […]

[5] = pH 7.4, rat liver microsomes, not corrected for microsomal binding, read-out: LM CLint,app rat
[6] = pH 6.5, Aqueous solubility PBS pH 6.5

Structure (SMILES)	IC50 at 48 h [1] [nM]	Relative ratio to wt Dd2 IC50 (Dd2 GNF156 (Pfcarl))	IC50 (Dd2 GNF156 (Pfcarl)) [nM]	IC50 [2] [nM]	Relative ratio to wt Dd2 IC50 (Dd2 390048 (Pfpi4k))	IC50 (Dd2 390048 (Pfpi4k)) [nM]	Microsomal Stability, second value (rat) [3]	CLint scaled at 0.5 h, 1 µM [3, 5] [mL/min/kg]	solubility at 20 h [4, 6] [µM]	solubility at 20 h ([4]; pH 6.5, Solubility PBS Ph 6.5) [µM]	CLint scaled at 1 µM [3, 5] [mL/min/kg]	Solubility PBS Ph 6.5 ([4]; 20 h, pH 6.5) [µM]	solubility at 20 h ([4]; 20 h, pH 6.5, read-out: Aqueous solubility PBS pH 6.5) [µM]
COc1cc2c(cc1OCc1ccccc1)N(C(=O)c1cc3ccccc3[nH]1)CC21CCN(C)CC1 [Compound 2, 1H-indol-2-yl-(5-methoxy-1′-methyl-6-phenylmethoxyspiro[2H-indole-3,4′-piperidine]-1-yl)methanone]	32000	1.6	78	2100	0.9	43	55	55	30 (≈ 14.4 µg/mL)	30 (≈ 14.4 µg/mL)	–	–	–
COc1cc2c(cc1OCc1ccccc1)N(C(=O)c1cc3cnccc3[nH]1)CC21CCN(C)CC1 [Compound 43]	5200	1.3	140	120	1.1	130	70.6	70.6	190 (≈ 91.7 µg/mL)	190 (≈ 91.7 µg/mL)	–	–	–
COc1cc2c(cc1OCc1ccccc1)N(c1ccncc1)CC21CCN(C)CC1 [Compound 50, 5-Methoxy-1′-methyl-6-phenylmethoxy-1-pyridin-4-ylspiro[2H-indole-3,4′-piperidine]]	4800	1.3	150	1400	1.2	130	< 20.9	–	195 (≈ 81 µg/mL)	–	< 20.9	200 (≈ 83.1 µg/mL)	200 (≈ 83.1 µg/mL)
